Laboratory results published in patent US20210330611A1, “THERAPY FOR NEUROLOGICAL DISEASES/DISORDERS” (priority 2020, published 2021).
Counter-ions that a name gives are not always drawn. Like-named read-outs stand apart in the source and are kept apart here.

Tests used:
[1] = system: fibrin-induced microglia activation; experiment: Image-based assay of fibrin-induced microglia activation (HTS and dose response); format: cell-based, rat; settings: for inhibition at 10 µM: Rattus norvegicus, Microglia, read-out: Fibrin % inhibition
[2] = system: LPS-induced microglia activation; experiment: Image-based assay of LPS-induced microglia activation (HTS and dose response); format: cell-based, rat
[3] = system: fibrin- and LPS-induced microglia activation; experiment: cells; format: cell-based, rat
primary rat microglia [4] = system: primary rat microglia;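 for Fibrin % cell toxicity: share of dead cells sized under 150 µm2 at 10 µM in fibrin-stimulated microglia HTS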
primary rat microglia [5] = system: primary rat microglia; remark: listed apart in the source;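 for Fibrin % cell toxicity: share of dead cells sized under 150 µm2 at 10 µM in fibrin-stimulated microglia HTS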
[6] = primary HTS, 10 μM, fibrin-stimulated primary microglia
[7] = Rattus norvegicus, Microglia, primary HTS, 10 μM, LPS-stimulated primary microglia; read-out: LPS % inhibition
[8] = primary microglia HTS, fibrin stimulation, increased cell size (>800 μm^2) as marker of activation
[9] = Rattus norvegicus, Microglia, 48 h, primary microglia HTS, LPS stimulation; increased cell size (>800 μm^2) as marker of activation; read-out: LPS % inhibition
[10] = quadrant by fibrin and LPS inhibition in HTS of 1907 compounds
[11] = primary microglia HTS, 10 μM, fibrin-stimulated, cell size >800 μm^2 as marker of activation
[12] = HTS of 1907 compounds, quadrant by fibrin and LPS inhibition
[13] = primary microglia HTS, LPS stimulation; increased cell size (>800 μm^2) as marker of activation
[14] = primary microglia HTS, fibrin stimulation, activation = cell size >800 μm2
[15] = Rattus norvegicus, Microglia, 48 h, primary microglia HTS, LPS stimulation, activation = cell size >800 μm2; read-out: LPS % inhibition
[16] = Rattus norvegicus, Microglia, read-out: LPS % inhibition
[17] = primary microglia HTS, fibrin stimulation, compounds at 10 μM
[18] = Rattus norvegicus, Microglia, primary microglia HTS, LPS stimulation, compounds at 10 μM; read-out: LPS % inhibition
[19] = quadrant by fibrin and LPS inhibition, HTS at 10 μM
[20] = classification by fibrin and LPS inhibition, HTS at 10 μM
[21] = Rattus norvegicus, Microglia, 48 h, read-out: LPS % inhibition

O=C1CCc2cc(OCCCCc3nnnn3C3CCCCC3)ccc2N1 [Cilostazol]
inhibition at 10 µM [1, 6]: 5% | inhibition at 10 µM [2, 7]: 17% | Quadrant (FIG. 5b) ([3]; primary HTS, 10 μM): Q4 | Fibrin % cell toxicity (primary rat microglia [4]; rat): 1% | LPS % cell toxicity (primary rat microglia [5]; rat): 1%

Cc1ncc([N+](=O)[O-])n1CCO [Metronidazole]
inhibition at 10 µM [1, 8]: -12% | inhibition at 10 µM [2, 9]: 15% | Quadrant (FIG. 5b) [3, 10]: Q4 | Fibrin % cell toxicity (primary rat microglia [4]; rat): 0% | LPS % cell toxicity (primary rat microglia [5]; rat): 1%

Cc1cc(C)nc(NS(=O)(=O)c2ccc(N)cc2)n1 [Sulfamethazine]
inhibition at 10 µM [1, 11]: -9% | inhibition at 10 µM ([2]; Rattus norvegicus, Microglia, primary microglia HTS, 10 μM, LPS-stimulated, cell size >800 μm^2 as marker of activation; read-out: LPS % inhibition): 14% | Quadrant (FIG. 5b) [3, 12]: Q4 | Fibrin % cell toxicity (primary rat microglia [4]; rat): 0% | LPS % cell toxicity (primary rat microglia [5]; rat): 0%

CCCCC1C(=O)N(c2ccccc2)N(c2ccc(O)cc2)C1=O (stereo not shown) [Oxyphenbutazone]
Fibrin % inhibition [1, 8]: 2% | LPS % inhibition [2, 13]: 114% | Quadrant (FIG. 5b) [3, 10]: Q1 | Fibrin % cell toxicity (primary rat microglia [4]): 1% | LPS % cell toxicity (primary rat microglia [5]): 97%

N#Cc1ccc(C(c2ccc(C#N)cc2)n2cncn2)cc1 [Letrozole]
inhibition at 10 µM [1, 14]: 15% | inhibition at 10 µM [2, 15]: 16% | Quadrant (FIG. 5b) [3, 10]: Q4 | Fibrin % cell toxicity (primary rat microglia [4]; rat): 1% | LPS % cell toxicity (primary rat microglia [5]; rat): 0%

C=C[C@H]1C[N@@]2CC[C@H]1C[C@@H]2[C@@H](O)c1ccnc2ccc(OC)cc12 [Quinidine]
inhibition at 10 µM ([1]; primary microglia HTS, fibrin stimulation, cell size >800 μm2 as marker of activation): -6% | inhibition at 10 µM ([2]; Rattus norvegicus, Microglia, 48 h; read-out: LPS % inhibition): 20% | Quadrant (FIG. 5b) ([3]; classification by fibrin and LPS inhibition in HTS): Q4 | Fibrin % cell toxicity (primary rat microglia [4]; rat): 1% | LPS % cell toxicity (primary rat microglia [5]; rat): 0%

O=C1C[C@@H]2OCC=C3CN4CC[C@]56c7ccccc7N1[C@H]5[C@H]2[C@H]3C[C@H]46 [Strychnine]
inhibition at 10 µM [1]: 1% | inhibition at 10 µM [2, 16]: 18% | Quadrant (FIG. 5b) [3]: Q4 | Fibrin % cell toxicity (primary rat microglia [4]; rat): 1% | LPS % cell toxicity (primary rat microglia [5]; rat): 0%

Clc1ccc(Cn2c(CN3CCCC3)nc3ccccc32)cc1 [Clemizole Hydrochloride]
inhibition at 10 µM [1, 6]: -38% | inhibition at 10 µM [2, 7]: 21% | Quadrant (FIG. 5b) ([3]; primary HTS, 10 μM): Q4 | Fibrin % cell toxicity (primary rat microglia [4]; rat): 0% | LPS % cell toxicity (primary rat microglia [5]; rat): 1%

CC(=O)c1ccc(S(=O)(=O)NC(=O)NC2CCCCC2)cc1 [Acetohexamide]
inhibition at 10 µM [1, 17]: 12% | inhibition at 10 µM [2, 18]: 14% | Quadrant (FIG. 5b) [3, 19]: Q4 | Fibrin % cell toxicity (primary rat microglia [4]; rat): 1% | LPS % cell toxicity (primary rat microglia [5]; rat): 0%

CC(C)(C)NC[C@H](O)c1ccc(O)c(CO)c1 [Levosalbutamol]
inhibition at 10 µM [1, 14]: -29% | inhibition at 10 µM [2, 15]: 11% | Quadrant (FIG. 5b) [3, 10]: Q4 | Fibrin % cell toxicity (primary rat microglia [4]; rat): 0% | LPS % cell toxicity (primary rat microglia [5]; rat): 0%

NCCCNCCSP(=O)(O)O [Amifostine]
inhibition at 10 µM [1, 17]: -38% | inhibition at 10 µM [2, 18]: 15% | Quadrant (FIG. 5b) [3, 19]: Q4 | Fibrin % cell toxicity (primary rat microglia [4]; rat): 0% | LPS % cell toxicity (primary rat microglia [5]; rat): 0%

CN(C)/N=N/c1[nH]cnc1C(N)=O [Dacarbazine]
inhibition at 10 µM [1, 17]: -13% | inhibition at 10 µM [2, 18]: 17% | Quadrant (FIG. 5b) [3, 20]: Q4 | Fibrin % cell toxicity (primary rat microglia [4]; rat): 0% | LPS % cell toxicity (primary rat microglia [5]; rat): 0%

CCN(CC)C(=S)SSC(=S)N(CC)CC [Disulfiram]
inhibition at 10 µM [1, 8]: 114% | inhibition at 10 µM [2, 9]: 131% | Quadrant (FIG. 5b) [3, 10]: Q2 | Fibrin % cell toxicity (primary rat microglia [4]; rat): 90% | LPS % cell toxicity (primary rat microglia [5]; rat): 75%

Vitamin A
Fibrin % inhibition [1, 11]: 15% | LPS % inhibition ([2]; primary microglia HTS, 10 μM, LPS-stimulated, cell size >800 μm^2 as marker of activation): 17% | Quadrant (FIG. 5b) [3, 12]: Q4 | Fibrin % cell toxicity (primary rat microglia [4]): 1% | LPS % cell toxicity (primary rat microglia [5]): 0%

COc1cc2nc(N3CCN(C(=O)C4CCCO4)CC3)nc(N)c2cc1OC (stereo not shown) [Terazosin]
inhibition at 10 µM [1]: -1% | inhibition at 10 µM [2, 16]: 9% | Quadrant (FIG. 5b) [3]: Q4 | Fibrin % cell toxicity (primary rat microglia [4]; rat): 1% | LPS % cell toxicity (primary rat microglia [5]; rat): 0%

CCCCNC(=O)NS(=O)(=O)c1ccc(C)cc1 [Tolbutamide]
inhibition at 10 µM [1]: 31% | inhibition at 10 µM [2, 16]: 24% | Quadrant (FIG. 5b) [3]: Q4 | Fibrin % cell toxicity (primary rat microglia [4]; rat): 1% | LPS % cell toxicity (primary rat microglia [5]; rat): 0%

COc1cc2c(c(OC)c1OC)-c1ccc(OC)c(=O)cc1[C@@H](NC(C)=O)CC2 [Colchicine, reference compound]
inhibition at 10 µM [1]: 114% | inhibition at 10 µM [2, 21]: 113% | Activity [3]: fib/LPS | Quadrant (FIG. 5b) [3]: Q2 | Fibrin % cell toxicity (primary rat microglia [4]; rat): 12% | LPS % cell toxicity (primary rat microglia [5]; rat): 10%

CC(=O)N1CCN(c2ccc(OCC3COC(Cn4ccnc4)(c4ccc(Cl)cc4Cl)O3)cc2)CC1 (stereo not shown) [Ketoconazole]
inhibition at 10 µM [1]: -57% | inhibition at 10 µM [2, 21]: -1% | Quadrant (FIG. 5b) [3]: Q4 | Fibrin % cell toxicity (primary rat microglia [4]; rat): 0% | LPS % cell toxicity (primary rat microglia [5]; rat): 0%

Oc1ccc(O)cc1 [Hydroquinone]
inhibition at 10 µM [1]: 14% | inhibition at 10 µM [2, 21]: 12% | Quadrant (FIG. 5b) [3]: Q4 | Fibrin % cell toxicity (primary rat microglia [4]; rat): 1% | LPS % cell toxicity (primary rat microglia [5]; rat): 0%

CNCCCC12CCC(c3ccccc31)c1ccccc12 [Maprotiline hydrochloride, reference compound]
Fibrin % inhibition ([1]; hydrochloride): 31% | inhibition at 10 µM [2, 21]: 67% | Activity [3]: fib/LPS | Quadrant (FIG. 5b) [3]: Q1 | Fibrin % cell toxicity (primary rat microglia [4]; rat): 1% | LPS % cell toxicity (primary rat microglia [5]; rat): 1%

FC(F)(F)C(Cl)Br (stereo not shown) [Halothane]
inhibition at 10 µM [1, 14]: 17% | inhibition at 10 µM [2, 15]: 17% | Quadrant (FIG. 5b) [3, 10]: Q4 | Fibrin % cell toxicity (primary rat microglia [4]; rat): 1% | LPS % cell toxicity (primary rat microglia [5]; rat): 0%

NC[C@@H]1O[C@H](O[C@H]2[C@@H](O)[C@H](O[C@@H]3[C@@H](O)[C@H](N)C[C@H](N)[C@H]3O[C@H]3O[C@H](CN)[C@@H](O)[C@H](O)[C@H]3N)O[C@@H]2CO)[C@H](N)[C@@H](O)[C@@H]1O.O=S(=O)(O)O [Neomycin Sulfate]
Fibrin % inhibition [1, 8]: 15% | LPS % inhibition [2, 13]: 18% | Quadrant (FIG. 5b) [3, 10]: Q4 | Fibrin % cell toxicity (primary rat microglia [4]): 0% | LPS % cell toxicity (primary rat microglia [5]): 0%

COc1cc(N)c(Cl)cc1C(=O)NC1CCN(CCCOc2ccc(F)cc2)CC1OC (stereo not shown) [Cisapride]
inhibition at 10 µM [1, 6]: -38% | inhibition at 10 µM [2, 7]: 5% | Quadrant (FIG. 5b) ([3]; primary HTS, 10 μM): Q4 | Fibrin % cell toxicity (primary rat microglia [4]; rat): 0% | LPS % cell toxicity (primary rat microglia [5]; rat): 0%

O=c1oc2ccccc2c(O)c1Cc1c(O)c2ccccc2oc1=O [Dicoumarol]
inhibition at 10 µM [1, 17]: -24% | inhibition at 10 µM [2, 18]: 18% | Quadrant (FIG. 5b) [3, 20]: Q4 | Fibrin % cell toxicity (primary rat microglia [4]; rat): 1% | LPS % cell toxicity (primary rat microglia [5]; rat): 0%

OC[C@@H](O)[C@H]1O[C@@H]2O[C@H](C(Cl)(Cl)Cl)O[C@@H]2[C@H]1O [Chloralose]
inhibition at 10 µM [1]: -14% | inhibition at 10 µM [2, 16]: 9% | Quadrant (FIG. 5b) [3]: Q4 | Fibrin % cell toxicity (primary rat microglia [4]; rat): 1% | LPS % cell toxicity (primary rat microglia [5]; rat): 0%
